The NIST ThermoML archive (doi:10.1021/je800251v)

Details: Liquid

CCCC(=O)OCC [ethyl butanoate]
mass density [kg/m3]
Details | 338.15 K | 343.15 K | 348.15 K | 353.15 K | 363.15 K | 373.15 K | 383.15 K | 393.15 K
100 kPa | 830.3 | 824.8 | 819.1 | 813.5 | 799.9 | 788.5 | 776.9 | 765.1
1000 kPa | 831.5 | 825.9 | 820.3 | 814.7 | 801.4 | 790.1 | 778.6 | 766.9
2000 kPa | 832.6 | 827.1 | 821.6 | 816.1 | 803 | 791.7 | 780.4 | 768.8
3000 kPa | 833.8 | 828.3 | 822.9 | 817.4 | 804.5 | 793.4 | 782.2 | 770.8
3100 kPa | 833.9 | 828.4 | 823 | 817.5 | 804.7 | 793.6 | 782.4 | 771
5000 kPa | 835.9 | 830.7 | 825.1 | 819.8 | 807.9 | 796.8 | 785.5 | 774.5
10000 kPa | 841.2 | 836.2 | 830.9 | 825.7 | 814.4 | 804 | 793.5 | 783.1
15000 kPa | 846.2 | 841.4 | 836.2 | 831.2 | 820.7 | 810.8 | 800.8 | 790.9
20000 kPa | 850.8 | 846.1 | 841.1 | 836.3 | 826.7 | 817.2 | 807.5 | 798
25000 kPa | 855.5 | 850.1 | 846 | 841.4 | 832.4 | 823.1 | 813.8 | 804.6
30000 kPa | 861 | 855.7 | 851.8 | 847.4 | 837.7 | 828.7 | 819.6 | 810.7
35000 kPa | 866.5 | 861.8 | 857.7 | 853.4 | 842.7 | 834 | 825.2 | 816.6
